Test results: publication doi:10.1101/2025.11.03.686228, “Design of Tissue-Selective PROTACs Through Recruiting E3 Ligase Scaffolding Protein MAGEA11” (bioRxiv, 2025)

Target: T1, BRD4 (first bromodomain, BRD4-BD1) (Homo sapiens, UniProt O60885)
T1 construct: BRD4-BD1 (first bromodomain)
Assay: fluorescence polarization competitive inhibition assay
Type: binding

- Ki: 14.9 ± 0.97 nM
Structure (SMILES): Cc1sc2c(c1C)C(c1ccc(Cl)cc1)=N[C@@H](CC(=O)NCCOCCOCCOCCOCCOCCOCCOCCOCc1cn(-c3ccc4c(NCCCNCc5ccc6[nH]ccc6c5)ccnc4c3)nn1)c1nnc(C)n1-2 [105B]
